Test results: article PMC7180617, “Biological Evaluation of 3-Benzylidenechromanones and Their Spiropyrazolines-Based Analogues” (Molecules, 2020)

Experiments:
erythrocytes = experiment: Red blood cell morphology (phase-contrast microscopy); format: cell-based; conditions: 2% erythrocyte suspension, 37 °C, 1 h, phase contrast 400×
Description: Studies on erythrocyte morphology complement the erythrotoxicity studies because they provide information on potential immediate interactions of the tested compounds with the erythrocyte lipid bilayer, and the possibility of creating pathological forms of erythrocytes, which are not able to carry oxygen. The effects of the synthesized compounds, and the two reference compounds chromanone and flavanone, on the morphology of erythrocytes is shown in Figure 6. Briefly, 2% RBC suspension was incubated with 0.9% NaCl (control samples) or tested compounds at various concentrations corresponding to their activity towards cancer cell lines.
A 2% erythrocyte suspension was incubated at 37 °C for one hour with various concentrations of synthesized compounds. The morphology of the RBCs was examined by means of a phase contrast Opta-Tech inverted microscope, at 400× magnification, equipped with software (OptaView 7) for image analysis.

HL-60 cells = experiment: MTT cytotoxicity assay, HL-60; format: cell-based, human; conditions: 46 h + 2 h incubation
Description: (§1) The first stage of the study used the MTT viability test to determine the cytotoxicity of ten compounds, i.e., 3-arylidenechromanone, 3-arylideneflavanone, spirochromanone and spiro- flavanone analogues, against four human cancer cell lines: HL-60, NALM-6, WM-115 and COLO-205.
(§2) Cytotoxicity was tested against human skin melanoma cells (WM-115, ECACC, Salisbury, UK), two human leukemia cell lines, viz. promyelocytic leukemia (HL-60) and lymphoblastic leukemia (NALM-6), and human colon adenocarcinoma cells (COLO-205). The cell lines COLO-205, WM-115 and HL-60 used in this work came from the ATCC American Type Culture Collection (Manassas, VA, USA), whereas the NALM-6 cell line was purchased from the German Collection of Microorganisms and Cell Cultures (Braunschweig, Germany). The leukaemia cells and colon adenocarcinoma were cultured in RPMI 1640 medium (Invitrogen, Grand Island, NY, USA) supplemented with 10% fetal bovine serum (FBS; Invitrogen) and gentamicin (25 µg/mL; KRKA, Novo Mesto, Slovenia). For melanoma WM-115 cells, Dulbecco’s minimal essential medium (DMEM; Invitrogen) was used. All cell lines were cultured at 37 °C in a humidified atmosphere of 5% CO2 in air.
(§3) For all experiments, the studied compounds were dissolved in DMSO (Sigma-Aldrich) and were further diluted in culture medium to obtain <0.1% DMSO concentration. In each experiment, controls with and without 0.1% DMSO were performed. The cytotoxicity of all compounds and of the reference compounds 4-chromanone and 3-benzylideneflavanone was determined by the MTT assay, i.e., 3-(4,5-dimethylthiazol-2-yl)-2,5-diphenyltetrazolium bromide (Sigma, St. Louis, MO, USA), which measures cellular dehydrogenase activity. Exponentially growing cells were seeded a day before the experiment onto a 96-well microplates (Nunc, Roskilde, Denmark) at a density up to 6–8 × 10^3 cells/well (depending on the cell line). Subsequently, various concentrations of the studied compounds freshly prepared in DMSO and diluted with complete culture medium were added. All compounds were tested for their cytotoxicity at a final concentration of 10^−7–10^−3 M. After 46 h of incubation with the studied compounds, the cells were treated with the MTT reagent and incubation was continued for another two hours. MTT – formazan crystals were dissolved in 20% sodium dodecyl sulphate (SDS, Sigma-Aldrich) and 50% DMF (Sigma-Aldrich) at pH 4.7; following this, absorbance was read at 570 nm on a multifunctional Victor ELISA-plate reader (Perkin Elmer, Turku, Finland). The IC50 values, i.e., the concentration of the test compound required to reduce the cell survival fraction to 50% of controls, were calculated from concentration-response curves and used as a measure of the sensitivity of the cells to a given treatment. As a control, cultured cells were grown in the absence of drugs. The data points represent the means of at least five to ten repeats ± standard deviation (S.D.).

COLO-205 cells = experiment: MTT cytotoxicity assay, COLO-205; format: cell-based, human; conditions: 46 h + 2 h incubation
Description: as §1, §2, §3

[1] = tested on: red blood cells (RBC membrane integrity); experiment: Red blood cell lysis assay; format: cell-based; conditions: 2% RBC suspension, 37 °C, 1 h
Description: All synthesized compounds with potential biological activity have to be tested for blood compatibility since xenobiotics will react with blood cells upon administration. In this case, biocompatibility refers to the quantification of cellular and plasma components of the blood. The measurement of the integrity of RBC membrane is considered a simple and reliable method for estimating hemocompatibility.
The studies on biological material were approved by the Bioethics Committee of the Medical University of Lodz, Poland (RNN/109/16/KE). The blood samples were obtained from healthy donors at the Blood Donation Centre in Lodz. The procedure for plasma preparation for erythrotoxicity studies was described previously. The influence of synthesized compounds as well as two reference compounds flavanone and chromanone on RBC membrane integrity was performed by lysis assay which was conducted according to our previous protocol. Briefly, 2% RBC suspension in 0.9% NaCl was incubated at 37 °C for one hour with the tested compounds at various concentrations corresponding to their activity towards cancer cell lines or 0.9% NaCl (control). The samples were centrifuged at 3000 rpm for 10 min and the absorbance of the supernatant was measured at 550 nm. The results are presented as percentage of haemolysis where a sample containing 10 μL of 2.0% v/v Triton X-100 was regarded as a positive control contributing to 100% of haemolysis. A sample containing saline solution represented spontaneous haemolysis of RBCs (control). The studies were performed on four biological samples obtained from different blood donors (n = 4). The results are presented as mean ± standard deviation (SD). The coefficient of variability for the method was counted: W = 9.51%, n = 5.

[2] = Lipophilicity (logP) by RP-TLC; conditions: RP-18 F254S TLC plates
Description: Lipophilicity is one of the most important physicochemical properties in pharmaceutical research. It can be considered a key determinant of the pharmacokinetic properties of a drug. It is commonly measured by the partition coefficient between water and n-octanol, being expressed as logP [14]. […] Knowledge of the partition coefficient is valuable: it is frequently used in structure–activity relationship (SAR) and quantitative structure–activity relationship (QSAR) studies. The experimental lipophilicity of the synthesized compounds, viz. benzylideneflavanones, benzylidenechromanones and spiropyrazolines, was determined using RP-TLC. […] It is important to examine the relationship between structure of the compound and its lipophilicity and cytotoxicity.
The RP-TLC experiments were performed on TLC plates (5 × 10 cm) RP-18 F254S (Merck, Darmstadt, Germany). The synthesized compounds were dissolved in N,N-dimethylformamide DMF (2 mg/mL). […] A DMF-water solvent system was used as mobile phase. […] All experiments were performed at room temperature. The logP parameter was calculated using the equation from the calibration curve.

NALM-6 cells = experiment: MTT cytotoxicity assay, NALM-6; format: cell-based, human; conditions: 46 h + 2 h incubation
Description: as §1, §2, §3

WM-115 cells = experiment: MTT cytotoxicity assay, WM-115; format: cell-based, human; conditions: MTT, 46 h + 2 h incubation
Description: as §1, §2, §3

O=C1CCOc2ccccc21 [Compound 4-Chromanone, 4-Chromanone, reference compound]
erythrocyte morphology (in words) (erythrocytes): echinocyte formation was observed
IC50 (HL-60 cells; Homo sapiens, HL-60, MTT): 677 ± 32.6 µM
IC50 (COLO-205 cells; Homo sapiens, COLO 205, 48 h): 721.5 ± 6.4 µM
effect on RBC hemolysis / erythrocyte membrane integrity (in words) [1]: Neither flavanone nor chromanone was found to have any unfavourable effect on the erythrocyte membrane over the whole concentration range
chromatographic logP [2]: 2.19
IC50 (NALM-6 cells; Homo sapiens, NALM-6, MTT): 674 ± 22.5 µM
IC50 (WM-115 cells; Homo sapiens, WM-115, 48 h): > 1000 µM

O=C1CC(c2ccccc2)Oc2ccccc21 (stereo not shown) [flavanone, reference compound]
erythrocyte morphology (in words) (erythrocytes): echinocyte formation was observed
effect on RBC hemolysis / erythrocyte membrane integrity (in words) [1]: Neither flavanone nor chromanone was found to have any unfavourable effect on the erythrocyte membrane over the whole concentration range

O=C1/C(=C/c2ccccc2)C(c2ccccc2)Oc2ccccc21 (stereo not shown) [Compound 5, (E)-3-benzylidene-2-phenylchroman-4-one]
erythrocyte morphology (in words) (erythrocytes): echinocytes accounted for the major part of erythrocytes
IC50 (HL-60 cells; Homo sapiens, HL-60, 48 h, MTT): 33.7 ± 3.87 µM
IC50 (COLO-205 cells; Homo sapiens, COLO 205, 48 h): 77.1 ± 1.9 µM
chromatographic logP [2]: 4.9
IC50 (NALM-6 cells; Homo sapiens, NALM-6, 48 h, MTT): 27 ± 3.1 µM
IC50 (WM-115 cells; Homo sapiens, WM-115, 48 h): 47.4 ± 4.62 µM

N.N.[Cl][Pt][Cl] [Cisplatin, reference compound]
IC50 (HL-60 cells; MTT): 0.8 ± 0.1 µM
IC50 (COLO-205 cells): 61.5 ± 3.2 µM
IC50 (NALM-6 cells; MTT): 0.7 ± 0.3 µM
IC50 (WM-115 cells): 18.2 ± 4.3 µM
